Assay results: patent publication US20190208782A1, “PROCESSING COMPOSITION FOR C[…] WEEDS” (Arch Chemicals, Inc., priority 2018, published 2019)
Converted amounts (≈) assume the structure as drawn.

How the values were obtained:
Type in all cases: in vivo
Eurasian watermilfoil [1] = assay: Efficacy of fluroxypyr herbicide on Eurasian watermilfoil under mesocosm conditions (Example 1); conditions: 24 h exposure
Excerpt: Materials and Methods: Eurasian watermilfoil was obtained from cultures. Two apical tips approximately 15 cm long were planted into each of 108, plastic containers. The containers were filled with Black Kow potting soil and amended with 2 g/L Osmocote fertilizer 19-6-12. Four containers of potted Eurasian watermilfoil were placed into each of 27 mesocosm tanks. Mesocosm tanks were filled to a volume of 276 L (48 cm depth) and plants allowed to grow approximately 2-3 weeks prior to herbicide treatments or until plants were at or near the water surface. Pre-treatment biomass was harvested from an extra mesocosm tank set up with potted Eurasian watermilfoil for this purpose. Biomass was harvested by collecting aboveground biomass of plants in the tank. Plant material were dried at 70 C for at least 48 h and weighed to assess biomass.
After pre-treatment data collection, concentrated liquid herbicides were applied as the formulations and rates outlined in Table 1. An untreated reference was also included for comparison purposes. All herbicide applications were made using a 24 h exposure and replicated 3 times. After the exposure time was reached, each mesocosm tank was drained and refilled with fresh water to remove any herbicide residue remaining in the water column.
Each week, tanks were rated for percent control on a 0-100% scale (0%=no control; 100%=complete plant mortality). Four weeks after treatment (WAT), living plants were harvested, sorted to aboveground biomass, dried, and weighed for biomass determination. Differences between treatments were analyzed using an ANOVA test with means separated using a Fisher's Protected LSD test. Fluroxypyr data were fitted to an exponential decay regression model in order to estimate the EC50 value for fluroxypyr use on Eurasian watermilfoil.

Eurasian watermilfoil [2] = assay: Fluroxypyr potassium salt vs ester formulation on Eurasian watermilfoil in small scale aquaria (Example 3); conditions: 24 h exposure, 4 WAT
Description: Materials and Methods: Eurasian watermilfoil was obtained from cultures. Two apical tips approximately 10 cm long were planted into each of 96, plastic containers (473 mL). The containers were filled with potting soil and amended with 2 g/L/soil Osmocote® fertilizer 19-6-12. A layer of sand was placed on top of the sediment in each container to prevent sediment re-suspension in the aquaria. Four containers of potted Eurasian watermilfoil were placed into each of 24 aquaria. Each aquaria was filled to a volume of 45 L and plants allowed to grow approximately 2-3 weeks prior to herbicide treatments or until plants were at or near the water surface. Pre-treatment biomass was harvested from extra aquaria set up with pots for this purpose. Biomass was harvested by cutting aboveground biomass of plants at the soil surface in the three pretreatment aquaria. Harvested plant material was placed into individually labeled paper bags, dried in a force air oven at 50 C for at least 48 h, and then weighed to assess biomass. […]
Each week, aquaria were rated for percent control on a 0-100% scale (0%=no control; 100% complete plant mortality). […] Differences between treatments were analyzed using ANOVA and means separated using a Fisher's Protected LSD test at a p≤0.05 significance level.

water hyacinth = assay: Fluroxypyr ester and four potassium salt formulations as foliar application on water hyacinth (Example 5)
Description: Materials and Methods: Water hyacinth was obtained from field locations in Mississippi and cultured in a 300 gallon tank outdoors. Water in the culture tank was amended with 30 mg/L Miracle-Gro fertilizer (14-8-16) every week to maintain plant growth. Once a sufficient density of water hyacinth had been achieved in the culture tank, rosettes of similar size were harvested and divided so that six to seven rosettes were placed into each of 33, 100 gallon treatment tanks. The treatment tanks were filled to a depth of 45 cm with water. Water was amended with 30 mg/L of Miracle-Gro fertilizer to maintain plant growth. Plants were allowed to grow until the water surface in each tank had been covered by water hyacinth.
After the growth period plants were treated as a foliar spray based on the formulations and rates in Table 7. The treatments contained the fluroxypyr herbicide in an amount of 15% by weight. Each surfactant was added in an amount of 10% by weight. The remainder of the formulation was distilled water. Treatments were applied using water as a carrier in a fine foliar spray at a total spray volume of 100 gal/acre using a CO2 pressurized backpack sprayer and single nozzle boom. AB Brand Adjuvant was included in the herbicide solution at a rate of 0.25% v:v.
After treatment, each tank was rated for percent control from 0 to 100% control every week for four weeks. At four weeks after treatment (WAT) a 0.1 m^2 PVC quadrat was used to harvest 1 biomass sample from each tank if living biomass was present. Biomass samples were placed into labeled paper bags, dried in a forced air oven at 50 C for five days, and then weighed to determine dry weight biomass (g/DW/m^2). Differences between treatments were analyzed using ANOVA and means separated using a Fisher's Protected LSD test. All analyses were conducted a p≤0.05 significance level.

Structure (SMILES): CCCCCCC(C)OC(=O)COc1nc(F)c(Cl)c(N)c1Cl (stereo not drawn) [Fluroxypyr ester, [(4-amino-3,5-dichloro-6-fluoro-2-pyridinyl)oxy]acetic acid, 1-methylheptyl ester]
- Visual control ratings of Eurasian watermilfoil (Eurasian watermilfoil [1]; 50 ug/L, 1 WAT): 30%
- Visual control ratings of Eurasian watermilfoil (Eurasian watermilfoil [1]; 50 ug/L, 2 WAT): 60%
- Visual control ratings of Eurasian watermilfoil (Eurasian watermilfoil [1]; 50 ug/L, 3 WAT): 50%
- Visual control ratings of Eurasian watermilfoil (Eurasian watermilfoil [1]; 50 ug/L, 4 WAT): 45%
- biomass reduction of Eurasian watermilfoil (Eurasian watermilfoil [1]; 50 ug/L, 4 WAT): 76%
- Visual control ratings of Eurasian watermilfoil (Eurasian watermilfoil [1]; 100 ug/L, 1 WAT): 60%
- Visual control ratings of Eurasian watermilfoil (Eurasian watermilfoil [1]; 100 ug/L, 2 WAT): 90%
- Visual control ratings of Eurasian watermilfoil (Eurasian watermilfoil [1]; 100 ug/L, 3 WAT): 90%
- Visual control ratings of Eurasian watermilfoil (Eurasian watermilfoil [1]; 100 ug/L, 4 WAT): 95%
- biomass reduction of Eurasian watermilfoil (Eurasian watermilfoil [1]; 100 ug/L, 4 WAT): 99%
- Visual control ratings of Eurasian watermilfoil (Eurasian watermilfoil [1]; 200 ug/L, 1 WAT): 60%
- Visual control ratings of Eurasian watermilfoil (Eurasian watermilfoil [1]; 200 ug/L, 2 WAT): 100%
- Visual control ratings of Eurasian watermilfoil (Eurasian watermilfoil [1]; 200 ug/L, 3 WAT): 100%
- Visual control ratings of Eurasian watermilfoil (Eurasian watermilfoil [1]; 200 ug/L, 4 WAT): 100%
- Visual control ratings of Eurasian watermilfoil (Eurasian watermilfoil [1]; 400 ug/L, 1 WAT): 70%
- Visual control ratings of Eurasian watermilfoil (Eurasian watermilfoil [1]; 400 ug/L, 2 WAT): 100%
- Visual control ratings of Eurasian watermilfoil (Eurasian watermilfoil [1]; 400 ug/L, 3 WAT): 100%
- Visual control ratings of Eurasian watermilfoil (Eurasian watermilfoil [1]; 400 ug/L, 4 WAT): 100%
- Visual control ratings of Eurasian watermilfoil (Eurasian watermilfoil [1]; 800 ug/L, 1 WAT): 70%
- Visual control ratings of Eurasian watermilfoil (Eurasian watermilfoil [1]; 800 ug/L, 2 WAT): 100%
- Visual control ratings of Eurasian watermilfoil (Eurasian watermilfoil [1]; 800 ug/L, 3 WAT): 100%
- Visual control ratings of Eurasian watermilfoil (Eurasian watermilfoil [1]; 800 ug/L, 4 WAT): 100%
- Visual control ratings of Eurasian watermilfoil (Eurasian watermilfoil [1]; 1600 ug/L, 1 WAT): 80%
- Visual control ratings of Eurasian watermilfoil (Eurasian watermilfoil [1]; 1600 ug/L, 2 WAT): 100%
- Visual control ratings of Eurasian watermilfoil (Eurasian watermilfoil [1]; 1600 ug/L, 3 WAT): 100%
- Visual control ratings of Eurasian watermilfoil (Eurasian watermilfoil [1]; 1600 ug/L, 4 WAT): 100%
- Visual control ratings of Eurasian watermilfoil (Eurasian watermilfoil [1]; 3200 ug/L, 1 WAT): 80%
- Visual control ratings of Eurasian watermilfoil (Eurasian watermilfoil [1]; 3200 ug/L, 2 WAT): 100%
- Visual control ratings of Eurasian watermilfoil (Eurasian watermilfoil [1]; 3200 ug/L, 3 WAT): 100%
- Visual control ratings of Eurasian watermilfoil (Eurasian watermilfoil [1]; 3200 ug/L, 4 WAT): 100%
- EC50 (Eurasian watermilfoil [1]; 4 WAT, mesocosm, read-out: EC50 for Eurasian watermilfoil (biomass, exponential decay regression model)): 8.8 ng/mL (≈ 0.024 µM)
- Eurasian watermilfoil biomass reduction (Eurasian watermilfoil [2]; 200 ug/L): 100%
- Eurasian watermilfoil biomass reduction (Eurasian watermilfoil [2]; 400 ug/L): 100%
- efficacy on water hyacinth biomass relative to the other fluroxypyr treatments (water hyacinth; 4 WAT, Ester 8 oz/acre, potassium salt formulations 10 oz/acre, FIG. 6): not as efficacious as the other fluroxypyr treatments
- Mean percent control ratings of water hyacinth (water hyacinth; 8 oz/acre foliar, 1 WAT): 20%
- Mean percent control ratings of water hyacinth (water hyacinth; 8 oz/acre foliar, 2 WAT): 25%
- Mean percent control ratings of water hyacinth (water hyacinth; 8 oz/acre foliar, 3 WAT): 55%
- Mean percent control ratings of water hyacinth (water hyacinth; 8 oz/acre foliar, 4 WAT): 75%
- Mean percent control ratings of water hyacinth (water hyacinth; 16 oz/acre foliar, 1 WAT): 20%
- Mean percent control ratings of water hyacinth (water hyacinth; 16 oz/acre foliar, 2 WAT): 45%
- Mean percent control ratings of water hyacinth (water hyacinth; 16 oz/acre foliar, 3 WAT): 85%
- Mean percent control ratings of water hyacinth (water hyacinth; 16 oz/acre foliar, 4 WAT): 95%
